This is an account of results in PMC6511062, “Preclinical candidate for the treatment of visceral leishmaniasis that acts through proteasome inhibition” (Proceedings of the National Academy of Sciences of the …, 2019).

Converted amounts (≈) assume the structure as drawn. “Also recorded” adds a separate entry of the source. Where two headings read alike, the source gives them in different places.

Data set [1] concerns TA100. Conditions: positive control. The protocol:
(§1) oxidative metabolism system (S9-mix). The maximum concentration tested and […]
(§2) Compound 7a was tested in a bacterial mutation screening assay (Ames test) with Salmonella typhimurium TA1535, TA1537, TA98, TA100 and Escherichia coli WP2uvrA(pKM101) in the presence and absence of an exogenous mammalian […]
(§3) The bacterial mutation screening assay was a plate incorporation test carried out as previously described15 and according to current methodology. […]

The subject of data set [2] is TA1535. Conditions: positive control. The protocol:
as §1, §2, §3

Data set [3] concerns TA1537. The data set is described as follows: Ames test, strain TA1537. The protocol: as §1, §2, §3
Data set [4] has as its system WP2 uvrA (pKM101). The data set can be described thus: Ames test, strain WP2 uvrA (pKM101). Conditions: with S9-mix, dose level 10 per plate, positive control. The protocol: as §1, §2, §3
(In general: The Ames test detects mutagens through reverse mutation in bacteria.)

Data set [5] concerns TA98. The data set can be described thus: Ames test, strain TA98. Conditions: without S9-mix, dose level 1 per plate, positive control. The protocol:
as §1, §2, §3

Data set [6] relates to L. donovani intramacrophage amastigotes. The data set is described as follows: L. donovani intramacrophage assay (amastigotes in differentiated THP-1 cells). The class given is cell-based, Leishmania donovani. Conditions: for EC50: Leishmania donovani, L. donovani amastigotes in differentiated THP-1 cells, read-out: Intramacrophage EC50. How it is done: T. cruzi4, Leishmania donovani axenic amastigote, cidal axenic amastigote and intra-
macrophage drug sensitivity assays were conducted as previously described5,6. […]
5. Intrinsic clearance (CLint) […]
6. Pharmacokinetic studies. […]

Data set [7] has as its system THP-1 cells. The data set is described as follows: Mammalian cell growth inhibition (THP-1). It counts as cell-based. Conditions: Homo sapiens. The source says: We hypothesized that, in view of their structural similarity, 1 and 2 probably shared the same mechanism of action.
Data set [8] is described as follows: Intrinsic clearance in mouse liver microsomes. It counts as in vitro ADME. How it is done:
page 13: 4. Parasite assays T. cruzi4, Leishmania donovani axenic amastigote, cidal axenic amastigote and intra- macrophage drug sensitivity assays were conducted as previously described5,6. a. […] Instead of a single readout at 72 h, multiple identical plates were used and read at different time points (24, 48, 72 h). Rate of kill curves showing the luminescence signal at each time point for each concentration were plotted. 5. […] The rate of intrinsic clearance (CLint) of each test compound was then calculated using the following calculation: CLint(mL/min/g liver) = k x V x Microsomal protein yield Where V (mL/mg protein) is the incubation volume/mg protein added and microsomal protein yield is taken as 52.5 mg protein/g liver. Verapamil (0.5 μM) was used as a positive control to confirm acceptable assay performance. 6. Pharmacokinetic studies. a. Mouse and dog PK Mouse pharmacokinetic studies were conducted in male CD-1 mice and male beagle dogs. 3 animals per group were used for each study performed. A dose of 3 mg/kg was administered intravenously, in a bolus form to mice and infused over a 30 min period to dogs. For all the intravenous studies compound were dissolved in 5% DMSO/20% kleptose in saline. A dose of 10 mg/kg was orally administered by gavage to the two species in a suspension of 1% methylcellulose to investigate oral pharmacokinetics. S13
Background: Microsomes from liver hold many membrane-bound enzymes, among them those of drug oxidation.

Data set [9] can be described thus: CAD (charged aerosol detector) solubility.
For data set [10], the system named is Salmonella typhimurium TA1535, TA1537, TA98, TA100 and Escherichia coli WP2uvrA(pKM101). The data set can be described thus: Bacterial mutation screening assay (Ames test), overall outcome. It counts as cell-based. Conditions: presence and absence of S9-mix. The protocol:
i. Bacterial Mutation (Ames) Assay
Compound 6 was tested in a bacterial mutation screening assay (Ames test) with Salmonella typhimurium TA1535, TA1537, TA98, TA100 and Escherichia coli WP2uvrA(pKM101) in the presence and absence of an exogenous mammalian oxidative metabolism system (S9-mix). The maximum concentration tested and […]
Compound 6a was tested in a bacterial mutation screening assay (Ames test) with […]
Compound 7a was tested in a bacterial mutation screening assay (Ames test) with […]
as §3

A short description of data set [11]: Solubility in fasted simulated intestinal fluid (FaSSIF). Conditions: for FaSSIF solubility: fasted simulated intestinal fluid; for solubility: fasted simulated intestinal fluid (FaSSIF), fassif.
Data set [12] has as its system mouse lymphoma cells. The data set is described as follows: Mouse lymphoma assay. Conditions: for MF (Mutation Frequency) / RTG (Relative Total Growth): positive control. How it is done:
oxidative metabolism system (S9-mix). […]
The maximum […]
concentrations analysed were 410.45 µg/mL (1 mM, the maximum concentration in accordance with current guidelines and 100 µg/mL (limited by toxicity), for the 3 and […]
The mouse lymphoma screen was carried out using test methodology based on established procedures for in vitro gene mutation testing17,18,19,20. […]

The subject of data set [13] is L. donovani promastigotes. The data set is described as follows: microbe, parasite or virus in culture. The class given is cell-based, Leishmania donovani. Conditions: read-out: EC50. The protocol:
9. Mode of action studies a. Cell lines and culture conditions […]
c. Generation of drug-resistant parasites […]
donovani in the continuous presence of this compound. Starting at a sub-lethal […]
After a total of 120 days in
Genomic DNA was harvested from three independently generated L. donovani resistant clones and an age match control, as previously described27. PCR was performed using Platinum PCR Supermix (Invitrogen), as per manufacturer’s […]
generated using primers SubunitB4FW and SubunitB4RV, then sequenced using primer SubunitB4FW (Table S6). To sequence the β5 subunit (LdBPK_361730.1), an […]
sequenced using primer SubunitB5FW. PCR amplification and DNA sequencing were performed in triplicate for each independently generated cell line. The Leishmania donovani BPK282A1 sequences of the two subunits were identified in TriTrypDB and […]
e. Generation of overexpression constructs and LdBOB transgenic cell lines The genes encoding the mutated versions of the β4 (LdBPK_360340.1) and the β5 […]
parasites, were synthesised (GeneArt, Thermo Fischer Scientific). The synthetic genes, flanked by BamHI sites were cloned into the equivalent site of pIR1-SAT. The accuracy of all assembled constructs was verified by sequencing.
Mid-log-phase L. donovani promastigotes (LdBOB) were transfected with overexpression constructs using the Human T-Cell Nucleofector kit and the Amaxa Nucleofector electroporator (program V-033). Following transfection, cells were […]
to appropriate drug selection (100 µg/mL nourseothricin). Cloned cell lines were […]
selection for one passage prior to experiments. […]

The subject of data set [14] is chymotrypsin-like activity of the L. donovani proteasome. The data set can be described thus: biochemical. More on the design: species or system Leishmania donovani. Conditions: lysates from RES II and WT parasites.
Protocol: An in vitro assay was developed that enabled the chymotrypsin-like activity and additional proteolytic activities associated with the proteasome to be directly monitored within proteasome-enriched parasite cell lysates. Likewise, human proteasome from two sources (i.e., commercially pure 26S and enriched proteasome fractions from THP-1 lysates) was tested using the same biochemical assays.
Proteasome enrichment by ultracentrifugation
The protocol described by Kisselev et al.34 was adapted to enrich the proteasomes present in L. donovani and THP1 crude extracts. L. donovani or THP1 cells were resuspended in sucrose buffer (50 mM Tris buffer pH 7.5, 5 mM Magnesium chloride, 1 mM EDTA, 50 mM NaCl, 250 mM sucrose, 2 mM ATP, 1 mM DTT) and lysed by nitrogen cavitation for 15 min (110 bars of 1500 psi). Lysates were centrifuged at 20,000g for 30 min at 4 °C and supernatants containing soluble protein were subjected to an ultracentrifugation step at 300,000g for 2h at 4 °C. The resulting proteasome-containing pellets were resuspended in sucrose buffer and left on ice for 30 min to complete solubilization. Samples were centrifuged for 10 min at 20,000 g to remove insoluble material. Proteins contained in supernatant (proteasome enriched fraction) were measured by Bradford.
Proteasome activity assays
Compounds were dispensed into black 384-well assay plates (Greiner) by acoustic dispensing (LabCyte ECHO). For potency determinations, eleven-point, one in three dilution curves were generated, with a top concentration of 100 µM. Three proteasome activities were measured using a commercially available indirect enzyme-based luminescent assay kit (Promega) with Suc-LLVY-aminoluciferin, Z-LRR-aminoluciferin and Z-nLPnLD-aminoluciferin used as substrates for chymotrypsin-like, trypsin-like and caspase-like activities, respectively. In addition to proteasome samples: L. donovani and THP1-enriched proteasomes, commercially available human purified 26S proteasome (Boston Biochem) was also assessed.
The mark [15] stands for this setting: with S9-mix, dose level 5 per plate.
The mark [16] stands for this setting: with S9-mix, dose level 5 per plate, positive control.
[17] abbreviates: without S9-mix, dose level 50 per plate.
[18] abbreviates: without S9-mix, dose level 2 per plate.

For the compound `Nc1ccc2cc3ccccc3cc2c1` [Compound 2-AAN, 2-Aminoanthracene, reference compound], the “Mean revertants per plate” value is listed as 4441.0 in data set [1] (setting [15]), 490.5 in data set [2] (setting [15]), 153.0 in data set [3] (setting [16]) and 1650.5 in data set [4]. Besides, the “Ratio treated / solvent” value in data set [1] (setting [15]) was determined as 33.6; in [2] (setting [15]), 31.6; in data set [3] (setting [16]) it was 6.7; in data set [4], 11.1.
Take `O=[N+]([O-])c1ccc2c(c1)Cc1ccccc1-2` [Compound 2NF, 2-Nitrofluorene, reference compound]: in data set [5], the “Mean revertants per plate” value is on record as 417.5 and the “Ratio treated / solvent” value was found to be 20.5.
Regarding `CCOc1cnc2nc(-c3cccc(NC(=O)c4ccco4)c3)cn2c1` [Compound 3], the concentration giving a half-maximal response (EC50) in data set [6] was determined as 4.2 µM. The EC50 in [7] was more than 50 µM. In addition, in [8], the CLint is listed as 1.8 mL/min/g and the “CLint (intrinsic clearance when incubated with mouse liver microsomes)” value was 1.8 mL/min per gram. Besides, in data set [9], the concentration in solution (solubility) came to 7 µg/mL (≈ 20.1 µM).
As for `CCOc1cnc2nc(-c3cccc(NC(=O)N4CCCC4)c3)cn2c1` [Compound 4], the EC50 in data set [6] is 3.3 µM. Further, in data set [7], the half-maximal effective concentration (EC50) was more than 50 µM. Besides, in data set [8], the CLint was found to be 0.59 mL/min/g and the “CLint (intrinsic clearance when incubated with mouse liver microsomes)” value is 0.59 mL/min per gram. Besides, the concentration in solution in data set [9] (solubility) came to 7 µg/mL (≈ 19.9 µM).
Regarding `O=C(Nc1cccc(-c2cn3cc(N4CCOCC4)cnc3n2)c1)N1CCCC1` [Compound 5], the concentration for a half-maximal effect (EC50) in data set [6] was 8.2 µM; in data set [7] it was more than 50 µM. Also, the CLint in data set [8] amounted to 0.76 mL/min/g. The “CLint (intrinsic clearance when incubated with mouse liver microsomes)” value in data set [8] stood at 0.76 mL/min per gram. Moreover, the solubility in [9] turned out to be 43 µg/mL (≈ 110 µM).
In the case of `O=C(Nc1ccc(F)c(-c2cn3cc(-c4ccccc4)cnc3n2)c1)N1CCCC1` [Compound 6], the EC50 is 0.15 µM in data set [6] and more than 50 µM in data set [7]. Further, the CLint in data set [8] came to 2.6 mL/min/g. In addition, the AMES entry in data set [10] is reported as “not mutagenic; also recorded: negative”. Besides, the solubility in data set [9] was 8 µg/mL (≈ 19.9 µM); in data set [11] it was 4 µg/mL (≈ 9.96 µM). The FaSSIF solubility result in [11] is on record as “poor solubility”.
For the compound `O=C(Nc1ccc(F)c(-c2cn3cc(N4CCOCC4)cnc3n2)c1)N1CCCC1` [Compound 6a], the EC50 in data set [6] was 0.6 µM; in data set [7], more than 50 µM. The “improvement of intramacrophage potency” value in [6] (relative to 5) is recorded as more than 10 fold. In [8], the CLint is listed as less than 0.5 mL/min/g. For the same compound, the AMES entry in data set [10] is given as “mutagenic in strain TA1537 when tested in the absence of S9-mix; also recorded: positive”. Moreover, the solubility in data set [9] was 39 µg/mL (≈ 95 µM); in data set [11] it was 6 µg/mL (≈ 14.6 µM). Further, the FaSSIF solubility entry in [11] is “poor solubility”.
In the case of `Nc1c2ccccc2nc2ccccc12` [Compound 9-AAC, 9-Amino Acridine, reference compound], in data set [3] (setting [17]), the “Mean revertants per plate” value is recorded as 249.5 and the “Ratio treated / solvent” value amounted to 17.4.
As to `Cc1c2ccccc2c(C)c2c1ccc1ccccc12` [DMBA, 7,12-dimethylbenz[a]anthracene, reference compound], in [12] (3 hour +S9 treatment), the “Positive / Negative” value is “Positive”, the “MF (Mutation Frequency)” value is reported as 1783.48 ×10-6 and the “RTG (Relative Total Growth)” value was found to be 28%.
On to `Cc1nc(C)c(C(=O)Nc2ccc(F)c(-c3nc4ncc(-c5ccccn5)cn4n3)c2)o1` [GNF6702, reference compound], for which the EC50 in data set [13] (RES I (compound 7-resistant clone)) came to 527 ± 12 nM; in [13] (RES III (compound 7-resistant clone)) it was 768 ± 38 nM; in data set [13] (WT promastigotes), 1.8 ± 0.002 nM.
As for `COS(C)(=O)=O` [MMS, methylmethansulfonate, reference compound], in [12] (24 hour -S9 treatment), the “Positive / Negative” value is “Positive”, the “MF (Mutation Frequency)” value is listed as 938.58 ×10-6 and the “RTG (Relative Total Growth)” value was found to be 73%.
Take `[N-]=[N+]=[N-].[Na+]` [NaN3, Sodium Azide, reference compound]: in data set [1] (setting [18]), the “Mean revertants per plate” value was 1050.0 and the “Ratio treated / solvent” value stood at 10.1. In data set [2] (setting [18]), the “Mean revertants per plate” value came out at 1128.5 and the “Ratio treated / solvent” value stood at 44.5.
Consider `CC(C)C[C@H](NC(=O)[C@H](CCc1ccccc1)NC(=O)CN1CCOCC1)C(=O)N[C@@H](Cc1ccccc1)C(=O)N[C@@H](CC(C)C)C(=O)[C@@]1(C)CO1` [carfilzomib, reference compound], for which the “inhibition of chymotrypsin-like activity, RES II vs WT lysates” value in data set [14] is given as “equal potency”.

Usually EC50 stands for the midpoint of the concentration-response curve. What is called solubility is the dissolved amount per volume that the medium holds. Higher therefore signals a readily soluble substance.
